Series [1] has as its target T1, Serine/threonine-protein kinase PLK2 (Homo sapiens, UniProt Q9NYY3).
Series [2] in a line: Ratio of drug level from brain to plasma in Sprague-Dawley rat at 200 mg/kg, po measured at 6 hrs. Format: ADME, organism-based. On the set-up: dose 200 mg/kg, route oral. The settings on record: brain and plasma, read-out: BPR.
Series [3] in a line: Metabolic stability in human liver microsomes assessed as compound remaining at 1 uM after 30 mins. Format: ADME, Microsome. The following applies: read-out: Stability. On the technique in general: Liver microsomes are vesicles of endoplasmic reticulum, rich in cytochrome P450 enzymes.
Series [4] in a line: Apparent permeability across apical to basolateral side in […] MDCK2 cells at 5 uM after 120 mins by LC/MS/MS analysis. The class given is ADME, cell-based, MDCK-II. The settings on record: MDCK.
The nature of series [5]: Ratio of drug level from brain to plasma in Sprague-Dawley rat at 100 mg/kg, po measured at 6 hrs. The class given is ADME, organism-based. On the set-up: dose 100 mg/kg, route oral. The following applies: brain and plasma, read-out: BPR.
The nature of series [6]: Plasma concentration in Sprague-Dawley rat at 100 mg/kg, po measured at 6 hrs. Format: ADME, organism-based. Further details: dose 100 mg/kg, route oral.
The nature of series [7]: Metabolic stability in rat liver microsomes assessed as compound remaining at 1 uM after 30 mins. Format: ADME, Microsome. The following applies: read-out: Stability.
A short description of series [8]: Plasma concentration in Sprague-Dawley rat at 200 mg/kg, po measured at 6 hrs. The class given is ADME, organism-based. On the set-up: dose 200 mg/kg, route oral.
Series [9] in a line: Lipophilicity, log P of the compound. The class given is physicochemical. The settings on record: octanol/water; read-out: logP.
The target of series [10] is Serine/threonine-protein kinase PLK1 (Homo sapiens, UniProt P53350). Nature of the series: Inhibition of GST-tagged Plk1 (unknown origin) assessed as inhibition of DEKTDDED phosphorylation at Thr1342 after 60 mins by TR-FRET assay. (Time-resolved FRET reads energy transfer from a long-lived donor to a nearby acceptor.)
For series [11], the system named is Rattus norvegicus. Nature of the series: Inhibition of Plk2-mediated phosphorylation of alpha-synuclein at Ser129 in Sprague-Dawley rat cerebral cortex at 100 to 200 mg/kg, po measured at 6 hrs by ELISA relative to control. The settings on record: dose mg/kg 100-200. The class given is functional. In general terms: An ELISA detects its analyte on a solid surface through an enzyme-linked reagent.

Series [12] is described as follows: Drug uptake in Sprague-Dawley rat brain at 100 mg/kg, po measured at 6 hrs. Format: ADME, organism-based. On the set-up: dose 100 mg/kg, route oral. The following applies: read-out: Drug uptake.
Series [13] in a line: Metabolic stability in mouse liver microsomes assessed as compound remaining at 1 uM after 30 mins. The settings on record: read-out: Stability. Format: ADME, Microsome.
A short description of series [14]: Drug uptake in Sprague-Dawley rat brain at 200 mg/kg, po measured at 6 hrs. Format: ADME, organism-based. Further details: dose 200 mg/kg, route oral. The following applies: read-out: Drug uptake.
The target of series [15] is T1, Serine/threonine-protein kinase PLK2. The source holds these as a separate data set.
Description: Inhibition of GST-tagged Plk2 (unknown origin) assessed as inhibition of DEKTDDED phosphorylation at Thr1342 after 60 mins by TR-FRET assay
Series [16] deals with MDR1. The series is described as follows: Efflux ratio of permeability across apical to basolateral side in […] MDCK cells expressing MDR1 at 5 uM after 120 mins by LC/MS/MS analysis. The class given is ADME, cell-based.

T1 sequence (Q9NYY3 whole entry): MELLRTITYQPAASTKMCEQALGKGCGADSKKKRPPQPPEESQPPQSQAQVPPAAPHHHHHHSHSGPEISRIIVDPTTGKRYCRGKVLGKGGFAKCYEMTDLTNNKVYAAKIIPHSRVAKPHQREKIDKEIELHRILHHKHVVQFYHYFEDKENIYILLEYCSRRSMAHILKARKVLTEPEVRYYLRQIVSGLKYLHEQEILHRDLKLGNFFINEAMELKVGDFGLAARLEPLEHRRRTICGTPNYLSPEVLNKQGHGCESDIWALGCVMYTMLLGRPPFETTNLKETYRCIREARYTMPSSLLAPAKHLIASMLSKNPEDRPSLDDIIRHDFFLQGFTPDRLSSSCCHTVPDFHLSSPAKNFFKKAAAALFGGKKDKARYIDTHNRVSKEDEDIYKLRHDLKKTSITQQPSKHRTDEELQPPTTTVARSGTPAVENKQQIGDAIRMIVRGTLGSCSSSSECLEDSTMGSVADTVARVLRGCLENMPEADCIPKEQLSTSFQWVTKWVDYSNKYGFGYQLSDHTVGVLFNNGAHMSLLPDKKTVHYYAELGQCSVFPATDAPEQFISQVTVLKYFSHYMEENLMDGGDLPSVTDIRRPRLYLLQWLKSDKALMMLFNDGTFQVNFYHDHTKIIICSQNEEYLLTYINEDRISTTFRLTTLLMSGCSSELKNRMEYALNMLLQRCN
Chain of Serine/threonine-protein kinase PLK1 (P53350 whole entry): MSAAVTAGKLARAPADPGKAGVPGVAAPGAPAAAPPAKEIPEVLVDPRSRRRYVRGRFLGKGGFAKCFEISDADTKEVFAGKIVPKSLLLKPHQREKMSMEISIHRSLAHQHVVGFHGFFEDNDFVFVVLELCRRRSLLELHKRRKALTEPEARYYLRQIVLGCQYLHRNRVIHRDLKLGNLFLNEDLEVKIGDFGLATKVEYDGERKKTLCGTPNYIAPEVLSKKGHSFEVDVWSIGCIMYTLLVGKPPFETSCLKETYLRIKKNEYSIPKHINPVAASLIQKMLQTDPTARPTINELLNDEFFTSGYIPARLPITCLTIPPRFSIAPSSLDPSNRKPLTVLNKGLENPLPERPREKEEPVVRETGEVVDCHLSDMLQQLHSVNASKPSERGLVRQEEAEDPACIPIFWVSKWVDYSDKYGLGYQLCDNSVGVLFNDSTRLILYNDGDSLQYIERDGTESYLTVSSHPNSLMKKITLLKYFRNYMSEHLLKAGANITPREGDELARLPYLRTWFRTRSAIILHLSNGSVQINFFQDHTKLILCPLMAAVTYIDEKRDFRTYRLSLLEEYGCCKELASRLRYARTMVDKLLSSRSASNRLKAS

In general, IC50 refers to the point on the concentration scale where inhibition reaches its midpoint. Broadly, the Papp A→B is how fast a substance crosses the layer from the apical side. Broadly, the logP is a log measure of how a compound divides between an organic and an aqueous phase. What is called efflux ratio is the permeability from basolateral to apical divided by that in the opposite direction, in the common usage. As for `CC[C@@H]1C(=O)N(C)c2cnc(-n3ccnc3-c3ccc(F)cc3)nc2N1c1ccn(C)n1`, the IC50 is 480 nM in series [1], 1350 nM in [10] and 7 nM in [15]. The Kp at 6 h is 0.28 in series [2] and 0.36 in series [5]. For the same molecule, the remaining at 0.5 h, 1 µM in [3] was found to be 63%; in series [7], 26%; in series [13], 25%. Moreover, the apical-to-basolateral permeability (Papp A→B) at 2 h, 5 µM in series [4] was 18.5 ×10⁻⁶ cm/s. In addition, the concentration at 6 h is 6290 ng/mL in series [6], 4880 ng/mL in [8], 5.2 µM in series [12] and 3.2 µM in series [14]. Further, the logP in series [9] is 2.4. Also, the “inhibition (INH)” value in series [11] is 41%. Besides, in series [16], the efflux ratio at 2 h, 5 µM was found to be 1.1.

For the origin of these results see ChEMBL document CHEMBL2401733 (Bioorg Med Chem Lett, 2013).
